Tests used:
Format in all cases: cell-based
[1] = biological target: T1, 17β-hydroxysteroid dehydrogenase type 3 (17β-HSD type 3) (Homo sapiens, UniProt P37058); assay: Inhibition of 17β-HSD type 3 in MCF-7 cells stably expressing the isoenzyme (tritium labeled androstenedione conversion, HPLC); conditions: MCF7, MCF-7 cells expressing 17β-HSD type 3, 2 nM tritium labeled androstenedione; for inhibition at 1 µM: 1 μM test compound, read-out: % Inhibition HSD3 1 μM; for inhibition at 10 µM: 10 μM test compound, read-out: % Inhibition HSD3 10 μM
T1 construct: expressed in transfected cells; host or cells: MCF-7
T1 sequence (P37058 1-310): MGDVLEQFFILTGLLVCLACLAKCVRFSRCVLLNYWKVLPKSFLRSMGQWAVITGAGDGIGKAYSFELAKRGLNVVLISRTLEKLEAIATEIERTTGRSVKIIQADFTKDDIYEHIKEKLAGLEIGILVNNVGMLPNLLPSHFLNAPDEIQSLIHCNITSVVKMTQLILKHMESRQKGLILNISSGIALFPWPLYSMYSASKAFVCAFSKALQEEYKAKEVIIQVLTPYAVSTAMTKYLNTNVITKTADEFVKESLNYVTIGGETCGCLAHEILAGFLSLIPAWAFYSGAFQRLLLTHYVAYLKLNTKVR
Outline: (§1)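 MCF-7 lines stably expressing each 17β-HSD isoenzyme incubated in growth medium with compound at two concentrations and 2 nM tritiated substrate (estrone, type 1; estradiol, type 2; androstenedione, type 3). Reaction stopped with TCA; conversion measured by HPLC with flow scintillation, inhibition relative to compound-free control.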

[2] = biological target: T2, 17β-hydroxysteroid dehydrogenase type 2 (17β-HSD type 2) (Homo sapiens, UniProt P37059); assay: Inhibition of 17β-HSD type 2 in MCF-7 cells stably expressing the isoenzyme (tritium labeled estradiol conversion, HPLC); conditions: MCF7, MCF-7 cells expressing 17β-HSD type 2, 2 nM tritium labeled estradiol; for inhibition at 1 µM: 1 μM test compound, read-out: % Inhibition HSD2 1 μM; for inhibition at 10 µM: 10 μM test compound, read-out: % Inhibition HSD2 10 μM
T2 construct: expressed in transfected cells; host or cells: MCF-7
T2 sequence (P37059 1-387): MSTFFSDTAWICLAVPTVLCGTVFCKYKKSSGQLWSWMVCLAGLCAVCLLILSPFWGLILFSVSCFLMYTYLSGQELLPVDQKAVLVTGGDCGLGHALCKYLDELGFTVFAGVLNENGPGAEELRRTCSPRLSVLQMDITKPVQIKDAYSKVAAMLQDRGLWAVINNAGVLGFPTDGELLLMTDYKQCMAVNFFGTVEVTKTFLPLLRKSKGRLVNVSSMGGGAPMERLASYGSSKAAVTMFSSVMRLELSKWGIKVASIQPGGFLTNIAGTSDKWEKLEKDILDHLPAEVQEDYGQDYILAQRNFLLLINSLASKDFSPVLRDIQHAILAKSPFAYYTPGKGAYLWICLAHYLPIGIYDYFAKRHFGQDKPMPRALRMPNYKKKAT
Outline: as §1

[3] = biological target: T3, 17β-hydroxysteroid dehydrogenase type 1 (17β-HSD type 1) (Homo sapiens, UniProt P14061); assay: Inhibition of 17β-HSD type 1 in MCF-7 cells stably expressing the isoenzyme (tritium labeled estrone conversion, HPLC); conditions: MCF7, MCF-7 cells expressing 17β-HSD type 1, 2 nM tritium labeled estrone; for inhibition at 1 µM: 1 μM test compound, read-out: % Inhibition HSD1 1 μM; for inhibition at 10 µM: 10 μM test compound, read-out: % Inhibition HSD1 10 μM
T3 construct: expressed in transfected cells; host or cells: MCF-7
T3 sequence (P14061 1-328): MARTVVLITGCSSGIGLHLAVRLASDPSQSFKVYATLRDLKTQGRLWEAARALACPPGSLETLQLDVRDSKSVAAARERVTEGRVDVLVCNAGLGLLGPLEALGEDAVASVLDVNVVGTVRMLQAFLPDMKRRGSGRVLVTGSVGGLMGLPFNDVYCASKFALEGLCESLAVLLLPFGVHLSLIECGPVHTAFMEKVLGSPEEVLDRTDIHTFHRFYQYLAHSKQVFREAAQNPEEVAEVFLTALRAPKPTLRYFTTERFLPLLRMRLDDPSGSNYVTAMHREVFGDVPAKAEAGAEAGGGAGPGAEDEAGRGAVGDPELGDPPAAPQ
Outline: as §1

Row | SMILES | inhibition at 1 µM [1] [%] | inhibition at 10 µM [1] [%] | inhibition at 1 µM [2] [%] | inhibition at 10 µM [2] [%] | inhibition at 1 µM [3] [%] | inhibition at 10 µM [3] [%]
1 | O=C(OCCn1c(-c2cccs2)nc2sc3c(c2c1=O)CCCC3)c1cccs1 [No. 69, Thiophene-2-carboxylic acid 2-(4-oxo-2-thiohen-2-yl-5,6,7,8-tetrahydro-4H-benzo[4,5]thieno[2,3-d]pyrimidin-3-yl)-ethyl ester] | -1.1 | 3.9 | 10.8 | 11.9 | 4.7 | 10.5
2 | O=C(OCCn1c(-c2cccs2)nc2sc3c(c2c1=O)CCCC3=O)c1cccs1 [No. 70, Thiophene-2-carboxylic acid 2-(4,8-dioxo-2-thiohen-2-yl-5,6,7,8-tetrahydro-4H-benzo[4,5]thieno[2,3-d]pyrimidin-3-yl)-ethyl ester] | -4.1 | 44.2 | 13.1 | 17.9 | 15.3 | 39.4
3 | O=C(OCCn1c(-c2cccs2)nc2sc3c(c2c1=O)CCC(Br)C3=O)c1cccs1 (stereo not drawn) [No. 71, Thiophene-2-carboxylic acid 2-(7-bromo-4,8-dioxo-2-thiohen-2-yl-5,6,7,8-tetrahydro-4H-benzo[4,5]thieno[2,3-d]pyrimidin-3-yl)-ethyl ester] | 21.9 | 36 | 28.9 | 24.5 | 20.7 | 20.8
4 | O=C(OCCn1c(-c2cccs2)nc2sc3c(O)cccc3c2c1=O)c1cccs1 [No. 73, Thiophene-2-carboxylic acid 2-(8-hydroxy-4-oxo-2-thiohen-2-yl-4H-benzo[4,5]thieno[2,3-d]pyrimidin-3-yl)-ethyl ester] | 37.9 | 82.6 | 58.3 | 90.5 | 26.8 | 32.8
5 | COCCn1c(-c2cccs2)nc2sc3c(c2c1=O)CCCC3=O [No. 75, 3-(2-Methoxyethyl)-2-thiophen-2-yl-6,7-dihydro-3H,5H-benzo[4,5]thieno[2,3-d]pyrimidine-4,8-dione] | 5 | 17 | 20.2 | 23.1 | 14.5 | 11.9
6 | COc1cccc(-c2nc3sc4c(c3c(=O)n2Cc2ccccc2)CCC(Br)(Br)C4=O)c1 [No. 81, 3-Benzyl-7,7-dibromo-2-(m-methoxyphenyl)-6,7-dihydro-3H,5H-benzo[4,5]thieno[2,3-d]pyrimidine-4,8-dione] | 7.8 | 26.2 | 32.1 | 35.6 | 33.1 | 16.8
7 | COc1cccc(-c2nc3sc4c(OC(C)=O)cccc4c3c(=O)n2Cc2ccccc2)c1 [No. 84, Acetic acid 3-benzyl-4-oxo-2-(m-methoxyphenyl)-3,4-dihydro-benzo[4,5]thieno[2,3-d]pyrimidin-8-yl ester] | 4 | 33.5 | 26.4 | 63.6 | 10.2 | 22.6

Other lines, results leading:

Row | inhibition at 1 µM [1] [%] | inhibition at 10 µM [1] [%] | inhibition at 1 µM [2] [%] | inhibition at 10 µM [2] [%] | inhibition at 1 µM [3] [%] | inhibition at 10 µM [3] [%] | SMILES
8 | 0.3 | 7.4 | 27 | 37.6 | 7.8 | 8.9 | O=C1c2sc3nc(-c4ccc(Br)s4)n(Cc4ccccc4)c(=O)c3c2CCC1(Br)Br [No. 66, 3-Benzyl-7,7-dibromo-2-(5-bromothiophen-2-yl)-6,7-dihydro-3H,5H-benzo[4,5]thieno[2,3-d]pyrimidine-4,8-dione]
9 | 19.1 | 33.4 | 55.2 | 80.3 | 14.7 | 29.6 | O=c1c2c(nc(-c3cccs3)n1Cc1ccccc1)sc1c(O)cccc12 [No. 67, 3-Benzyl-8-hydroxy-2-thiophen-2-yl-3H-benzo[4,5]thieno[2,3-d]pyrimidine-4-one]
10 | 7.3 | 40.7 | 15.5 | 49 | 9 | 21.5 | O=c1c2c(nc(-c3ccc(Br)s3)n1Cc1ccccc1)sc1c(O)cccc12 [No. 68, 3-Benzyl-2-(5-bromothiophen-2-yl)-8-hydroxy-3H-benzo[4,5]thieno[2,3-d]pyrimidin-4-one]
11 | 16.1 | 64.4 | 18 | 53.9 | 15.3 | 15.2 | O=C(OCCn1c(-c2cccs2)nc2sc3c(c2c1=O)CCC(Br)(Br)C3=O)c1cccs1 [No. 72, Thiophene-2-carboxylic acid 2-(7,7-dibromo-4,8-dioxo-2-thiohen-2-yl-5,6,7,8-tetrahydro-4H-benzo[4,5]thieno[2,3-d]pyrimidin-3-yl)-ethyl ester]
12 | 8.3 | 8.3 | 33.2 | 26.1 | 11.7 | 12.2 | COCCn1c(-c2cccs2)nc2sc3c(c2c1=O)CCCC3 [No. 74, 3-(2-Methoxyethyl)-2-thiophen-2-yl-5,6,7,8-tetrahydro-3H-benzo[4,5]thieno[2,3-d]pyrimidin-4-one]
13 | 47.1 | 81.4 | 44.6 | 43.4 | 35.8 | 44.1 | COCCn1c(-c2cccs2)nc2sc3c(c2c1=O)CCC(Br)C3=O (stereo not drawn) [No. 76, 7-Bromo-3-(2-methoxyethyl)-2-thiophen-2-yl-6,7-dihydro-3H,5H-benzo[4,5]thieno[2,3-d]pyrimidine-4,8-dione]
14 | -4.3 | 27.6 | 9.1 | 7.8 | 7.1 | 28.5 | COc1cccc(-c2nc3sc4c(c3c(=O)n2Cc2ccccc2)CCCC4)c1 [No. 78, 3-Benzyl-2-(m-methoxyphenyl)-5,6,7,8-tetrahydro-3H-benzo[4,5]thieno[2,3-d]pyrimidin-4-one]
15 | 21.9 | 59.7 | 34.4 | 31.6 | 26.6 | 39.1 | COc1cccc(-c2nc3sc4c(c3c(=O)n2Cc2ccccc2)CCCC4=O)c1 [No. 79, 3-Benzyl-2-(m-methoxyphenyl)-6,7-dihydro-3H,5H-benzo[4,5]thieno[2,3-d]pyrimidine-4,8-dione]
16 | 22.7 | 35.4 | 47.3 | 51 | 37 | 39.3 | COc1cccc(-c2nc3sc4c(c3c(=O)n2Cc2ccccc2)CCC(Br)C4=O)c1 (stereo not drawn) [No. 80, 3-Benzyl-7-bromo-2-(m-methoxyphenyl)-6,7-dihydro-3H,5H-benzo[4,5]thieno[2,3-d]pyrimidine-4,8-dione]
17 | 13.5 | 21 | 26.1 | 60.1 | 25.4 | 26.3 | COc1cccc(-c2nc3sc4c(O)cccc4c3c(=O)n2Cc2ccccc2)c1 [No. 83, 3-Benzyl-8-hydroxy-2-(m-methoxyphenyl)-3H-benzo[4,5]thieno[2,3-d]pyrimidin-4-one]

— patent US7524853B2 (Solvay Pharmaceuticals B.V., priority 2003, dated 2009)
